In the NIST ThermoML archive (doi:10.1021/acs.jced.5b00367):

Assay: wn = mass fraction of the nth substance listed
Conditions: 101 kPa, Liquid, Alternating current cell with electrodes, w1 = 0.01

CCCCCCCCCCCCCCCC[N+](CC)(CC)CCCCCCCCCCCCCCCC.[Br-] [diethyldihexadecylammonium bromide] + O
Conditions | electrical conductivity [S/m]
279.15 K | 0.0018
279.25 K | 0.00186
279.45 K | 0.00186
279.55 K | 0.00187
279.65 K | 0.00187
279.85 K | 0.00188
280.15 K | 0.00189
280.35 K | 0.00189
280.55 K | 0.0019
280.65 K | 0.0019
281.05 K | 0.0019
281.15 K | 0.00191
281.55 K | 0.00191
281.85 K | 0.00192
282.05 K | 0.00192
282.25 K | 0.00193
282.75 K | 0.00194
283.05 K | 0.00195
283.15 K | 0.00195
283.45 K | 0.00195
283.65 K | 0.00195
283.85 K | 0.00195
283.95 K | 0.00195
284.15 K | 0.00195
284.55 K | 0.00197
284.75 K | 0.00197
285.25 K | 0.00197
285.45 K | 0.00198
285.55 K | 0.00198
285.75 K | 0.00198
285.85 K | 0.00198
286.15 K | 0.00198
286.25 K | 0.00198
286.55 K | 0.00198
286.65 K | 0.00198
289.15 K | 0.002
290.15 K | 0.00201
290.85 K | 0.00202
291.45 K | 0.00204
291.75 K | 0.00205
292.05 K | 0.00206
292.95 K | 0.00207
295.55 K | 0.00209
296.65 K | 0.0021
297.65 K | 0.00211
298.65 K | 0.00212
299.45 K | 0.00213
300.75 K | 0.00214
301.25 K | 0.00215
302.35 K | 0.00216
303.05 K | 0.00217
303.65 K | 0.00219
304.05 K | 0.0022
305.25 K | 0.00226
305.55 K | 0.00229
305.95 K | 0.00235
306.45 K | 0.00239
306.95 K | 0.00247
307.35 K | 0.00254
307.65 K | 0.00264
307.95 K | 0.0027
308.15 K | 0.00278
308.45 K | 0.00294
308.75 K | 0.00294
308.95 K | 0.00295
309.55 K | 0.00296
310.25 K | 0.00297
311.35 K | 0.00299
312.45 K | 0.00304
312.65 K | 0.00305
313.55 K | 0.00305
313.95 K | 0.00308
314.15 K | 0.00314
316.55 K | 0.00319
317.25 K | 0.00323
318.65 K | 0.00322
318.75 K | 0.00325
319.15 K | 0.00326
320.75 K | 0.00328
320.95 K | 0.00331
321.05 K | 0.00333
322.05 K | 0.0034
322.15 K | 0.0034
323.15 K | 0.00347
